CS(N)(=O)=O
Conditions	solubility (mole fraction)
in ethanol, 283.13 K	0.0265
in ethanol, 288.18 K	0.0338
in ethanol, 293.14 K	0.0412
in ethanol, 298.17 K	0.0484
in ethanol, 302.16 K	0.0614
in ethanol, 308.16 K	0.0792
in ethanol, 313.06 K	0.1
in ethanol, 318.07 K	0.132
in ethanol, 323.16 K	0.181
in ethyl acetate, 283.26 K	0.0297
in ethyl acetate, 288.16 K	0.0329
in ethyl acetate, 293.2 K	0.0373
in ethyl acetate, 298.1 K	0.0419
in ethyl acetate, 303.18 K	0.0458
in ethyl acetate, 308.24 K	0.0507
in ethyl acetate, 313.17 K	0.0565
in ethyl acetate, 318.07 K	0.0627
in ethyl acetate, 323.16 K	0.0684
in isobutanol, 283.2 K	0.0117
in isobutanol, 288.14 K	0.0145
in isobutanol, 293.06 K	0.0174
in isobutanol, 298.36 K	0.0216
in isobutanol, 303.13 K	0.026
in isobutanol, 308.14 K	0.0309
in isobutanol, 313.04 K	0.0384
in isobutanol, 318.16 K	0.0481
in isobutanol, 323.04 K	0.0592
in isopentanol, 283.16 K	0.00502
in isopentanol, 288.14 K	0.00747
in isopentanol, 293.16 K	0.0108
in isopentanol, 298.17 K	0.0138
in isopentanol, 303.05 K	0.018
in isopentanol, 308.06 K	0.0228
in isopentanol, 313.15 K	0.0288
in isopropanol, 283.06 K	0.0139
in isopropanol, 288.17 K	0.0178
in isopropanol, 293.14 K	0.0221
in isopropanol, 298.08 K	0.0277
in isopropanol, 303.06 K	0.0333
in isopropanol, 308.14 K	0.044
in isopropanol, 313.14 K	0.0556
in isopropanol, 318.16 K	0.0704
in isopropanol, 323.04 K	0.0917
in isopropyl acetate, 283.27 K	0.0099
in isopropyl acetate, 288.14 K	0.0112
in isopropyl acetate, 293.16 K	0.0127
in isopropyl acetate, 298.34 K	0.0148
in isopropyl acetate, 303.13 K	0.0169
in isopropyl acetate, 308.1 K	0.0195
in isopropyl acetate, 313.3 K	0.0219
in isopropyl acetate, 318.22 K	0.0251
in isopropyl acetate, 323.27 K	0.0294
in methanol, 283.27 K	0.0738
in methanol, 288.1 K	0.0884
in methanol, 293.2 K	0.108
in methanol, 298 K	0.133
in methanol, 303.3 K	0.163
in methanol, 308.36 K	0.2
in methanol, 313.13 K	0.243
in methanol, 318.1 K	0.286
in methanol, 322.2 K	0.33
in methyl propionate, 283.27 K	0.0251
in methyl propionate, 288.27 K	0.026
in methyl propionate, 293.06 K	0.0291
in methyl propionate, 298.14 K	0.0324
in methyl propionate, 303.36 K	0.036
in n-butanol, 283.1 K	0.0117
in n-butanol, 288.2 K	0.0131
in n-butanol, 293.18 K	0.015
in n-butanol, 298.16 K	0.0172
in n-butanol, 303.26 K	0.0218
in n-butanol, 308.06 K	0.027
in n-pentanol, 283.14 K	0.00546
in n-pentanol, 288.13 K	0.00713
in n-pentanol, 293.14 K	0.00998
in n-pentanol, 298.12 K	0.0156
in n-pentanol, 303.06 K	0.0219
in n-propanol, 283.16 K	0.0125
in n-propanol, 288.14 K	0.0153
in n-propanol, 293.08 K	0.0185
in n-propanol, 298.14 K	0.0213
in n-propanol, 303.12 K	0.0296
in n-propanol, 308.24 K	0.0375
in n-propanol, 313.18 K	0.0471
in n-propanol, 318.24 K	0.0608
in n-propanol, 323.24 K	0.08
in n-propyl acetate, 283.07 K	0.0114
in n-propyl acetate, 288.13 K	0.0125
in n-propyl acetate, 293.26 K	0.0141
in n-propyl acetate, 298.04 K	0.0163
in n-propyl acetate, 303.14 K	0.0185
in n-propyl acetate, 308.04 K	0.0214
in n-propyl acetate, 313 K	0.0243
in n-propyl acetate, 318.07 K	0.028
in n-propyl acetate, 323.17 K	0.0322
in sec-butanol, 283.3 K	0.00628
in sec-butanol, 288.14 K	0.0112
in sec-butanol, 293.13 K	0.0166
in sec-butanol, 298.06 K	0.0224
in sec-butanol, 303.1 K	0.0284
in sec-butanol, 308.26 K	0.036
in sec-butanol, 313.06 K	0.0459

Source: BigSolDB 2.1
